Data published in patent US6417183B1, “1,4-diazacycloheptane derivatives” (Astrazenela UK Limited, priority 1997, dated 2002).
Where a name gives a salt, the structure may show the parent alone.

Tests used:
[1] = target: T1, [3H]-emopamil binding site (Cavia porcellus, UniProt Q60490); experiment: 3H-Emopamil binding to guinea pig liver membranes; conditions: displacement of 0.96 nM (-)-3H-emopamil, 60 minutes at 37° C.
T1 construct: from tissue; host or cells: guinea pig liver membranes
T1 sequence (Q60490 1-229): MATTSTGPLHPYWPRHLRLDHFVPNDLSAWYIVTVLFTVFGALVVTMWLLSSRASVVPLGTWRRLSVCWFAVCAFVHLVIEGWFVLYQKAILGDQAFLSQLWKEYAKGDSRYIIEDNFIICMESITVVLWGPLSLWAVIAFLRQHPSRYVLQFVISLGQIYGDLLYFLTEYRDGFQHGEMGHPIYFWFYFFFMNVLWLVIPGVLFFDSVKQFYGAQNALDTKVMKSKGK
Procedure: ^3H-Emopamil Binding to Guinea Pig Liver Membranes
The method of (−)-^3H-emopamil binding was a modification of Zech, C., Staudinger R., Mühlbacher, J. and Glossmann, H. Novel sites for phenylalkylamines: characterization of a sodium-sensitive drug receptor with (−)-^3H-emopamil. Eur. J. Pharm. 208: 119-130, 1991.
The reaction mixture contained:
Assay buffer: 10 mM Tris-HCl, 0.1 mM phenylmethylsulfonyl fluoride (PMSF), 0.2% bovine serum albumin (BSA), pH 7.4 at 4° C.
Radioligand: 0.96 nM (−)-^3H-emopamil (Amersham).
Guinea pig liver membranes: 40 mg/mL original wet weight.
This mixture was incubated for 60 minutes at 37° C. The incubation was terminated by filtering with a Brandel Cell Harvester over Whatman GF/C filters that had been soaked for at least 120 minutes in 0.3% polyethylenimine (PEI) and washed three times with 5 mL of wash buffer containing 10 mM Tris-HCl, 10 mM MgCl2, 0.2% BSA, pH 7.4 at 25° C. Specific binding was defined with 10 μM emopamil. […]
Guinea-pig liver membrane preparation: Male guinea pigs were sacrificed by CO2 asphyxiation with dry ice. The livers were quickly excised and weighed and rinsed in membrane preparation buffer containing 10 mM Hepes, 1 mM Tris base-EDTA, 250 mM […] Teflon-glass homogenizer with three strokes on ice. […]

[2] = system: L-type voltage sensitive calcium channels (3H-D888 binding site); experiment: 3H-D-888 binding to rat brain cortical membranes; conditions: displacement of 3H-D888, rat cortical membranes, 60 minutes at 25° C.
Procedure: ^3H-D-888 Binding to Rat Brain Cortical Membranes
The method of ^3H-D-888 binding was a modification of Reynolds, I. J., Snowman, A. M. and Synder, S. H. (−)-[^3H] Desmethoxyverapamil labels multiple calcium channel modular receptors in brain and skeletal muscle membranes: differentiation by temperature and dihydropyridines. J. Pharmacol. Exp. Ther. 237: no.3, 731-738, 1986.
The assay tubes contained the following: assay buffer: 50 mM Hepes, 0.2% BSA, pH 7.4 radioligand: 1 πM ^3H-D888 (Amersham) rat cortical membranes: 6 mg/ml original wet weight
This mixture was incubated for 60 minutes at 25° C. The assay was terminated by filtering with a Brandel Cell Harvester over Whatman GF/C filters that had been soaked for at least 120 minutes in 0.3% polyethylenamine (PEI) and washed three times with 5 mL of wash buffer containing 20 mM Hepes, 20 mM MgCl2, pH 7.4. Specific binding was measured with 10 μM methoxyverapamil (D-600). This assay was used to determine in vitro selectivity of compounds vs. L-type voltage sensitive calcium channels, i.e high affinity for the ^3H-D888 binding site would show a lack of selectivity. For example the compound of Example 4 gave a value of about 19.000 nM in this test.
Rat brain cortical membrane preparation: Male Sprague-Dawley Rats were sacrificed by decapitation and the brains were quickly excised. […]

melting point [°C] | IC50 [1] [nM] | value in 3H-D-888 binding test (in vitro selectivity vs. L-type VSCC) [2] | SMILES
172.2 to 176.6 | – | – | COc1cccc2c1CCCC2N1CCCN(C)CC1 (centres unmarked) (as salt: hydrochloride) [Example 7, 1-Methyl-4-(5-methoxy-1,2,3,4-tetrahydro-1-naphthalenyl)homopiperazine]
149.5 to 151 | – | – | CC(C)N1CCCN(C2CCCc3ccccc32)CC1 (centres unmarked) (as salt: hydrochloride) [Example 13, 1-Isopropyl-4-(1,2,3,4-tetrahydro-1-naphthalenyl)homopiperazine]
125.4 to 126.3 | – | – | CN1CCCN(C2CCCc3ccccc32)CC1 (centres unmarked) (as salt: maleate) [Example 1, 1-Methyl-4-(1,2,3,4-tetrahydro-1-naphthalenyl)homopiperazine]
107 to 109.4 | – | – | c1ccc2c(c1)CCCC2N1CCCNCC1 (centres unmarked) (as salt: salt) [Example 2, N-(1,2,3,4-Tetrahydro-1-naphthalenyl)homopiperazine]
78.8 to 79.5 | – | – | CN1CCCN(C2CCCc3cc(F)ccc32)CC1 (centres unmarked) (as salt: salt) [Example 16, 1-Methyl-4-(6-fluoro-1,2,3,4-tetrahydro-1-naphthalenyl)homopiperazine]
131.5 to 132.8 | – | – | CCc1ccc2c(c1)CCCC2N1CCCN(C)CC1 (centres unmarked) (as salt: salt) [Example 25, 1-Methyl-4-(6-ethyl-1,2,3,4-tetrahydro-1-naphthalenyl)homopiperazine]
– | 17 | about 19.000 nM | CN1CCCN([C@H]2CCCc3ccccc32)CC1 [Example 4, S(+) 1-Methyl-4-(1,2,3,4-tetrahydro-1-naphthalenyl)homopiperazine]
